Experimental data: US20150051296A1, “USE OF FATTY ACID TO REDUCE SKIN IRRITATION ASSOCIATED WITH RETINOID THERAPY” (Access Business Group Internaional LLC, priority 2013, published 2015)

How the values were obtained:
[1] = system: peroxisome proliferator activated receptor (PPAR); test: PPAR luciferase reporter assay in stably transfected Chinese hamster ovary cells; assay type: cell-based; conditions: about 0 to about 100 μg/mL, FIG. 5
Protocol: Chinese hamster ovary cells were stably transfected with peroxisome proliferator activated receptor (PPAR) construct and luciferase reporter vector. […] The response was measured in relative light units (RLUs).

[2] = system: retinoic acid response element (RARE) construct; test: RARE reporter assay in stably transfected human kidney cells; assay type: cell-based; conditions: oleic acid about 0, 25, 50, 100, 200 μM, FIG. 3
Protocol: Human kidney cells were stably transfected with a retinoic acid response element (RARE) construct. The transfected cells were exposed to increasing amounts of retinoic acid (from about 0.005 μM to about 10 μM) in the presence of increasing amounts of oleic acid (about 0 μM, about 25 μM, about 50 μM, about 100 μM, and about 200 μM), and the response was measured in relative light units (RLUs).

## CCCCCCCC/C=C\CCCCCCCC(=O)O [oleic acid]
[1]
  response (RLUs) of PPAR-transfected cells: responded in a dose dependent manner
[2]
  effect of the fatty acid on retinoic acid activation of the retinoic acid receptor: did not affect retinoic acid activation of the retinoic acid receptor
